Experimental data: ChEMBL document CHEMBL1268831, “Indole alkaloids from Ervatamia hainanensis with potent acetylcholinesterase inhibition activities” (Bioorg Med Chem Lett, 2010)
pIC50: −log10 of the molar value.

Target: Acetylcholinesterase (Electrophorus electricus, UniProt O42275)
Assay: Inhibition of electric eel AChE by Ellman's method

Sequence of Acetylcholinesterase (O42275 whole entry): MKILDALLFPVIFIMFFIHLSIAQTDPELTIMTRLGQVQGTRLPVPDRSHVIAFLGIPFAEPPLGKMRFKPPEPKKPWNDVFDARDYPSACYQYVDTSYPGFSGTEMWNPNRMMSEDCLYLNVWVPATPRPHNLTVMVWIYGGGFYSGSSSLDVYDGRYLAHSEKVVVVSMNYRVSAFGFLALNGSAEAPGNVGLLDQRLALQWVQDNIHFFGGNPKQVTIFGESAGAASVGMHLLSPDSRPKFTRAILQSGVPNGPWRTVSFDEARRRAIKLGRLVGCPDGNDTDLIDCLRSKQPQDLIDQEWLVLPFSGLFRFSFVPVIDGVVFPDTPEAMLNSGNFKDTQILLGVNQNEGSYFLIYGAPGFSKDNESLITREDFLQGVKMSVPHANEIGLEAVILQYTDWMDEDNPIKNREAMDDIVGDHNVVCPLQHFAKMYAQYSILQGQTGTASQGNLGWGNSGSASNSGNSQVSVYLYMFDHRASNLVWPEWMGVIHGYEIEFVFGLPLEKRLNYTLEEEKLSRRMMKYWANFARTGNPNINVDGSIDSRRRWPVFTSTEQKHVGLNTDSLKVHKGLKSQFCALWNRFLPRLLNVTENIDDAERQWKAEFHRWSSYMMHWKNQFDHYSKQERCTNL

SMILES	pIC50
CC[C@H]1C[C@@H]2CN3CCc4c([nH]c5ccc(O)cc45)[C@](C(=O)OC)(C2)[C@H]13	4.54
COC(=O)[C@@]12C[C@@H]3C[C@H]([C@@H](C)O)[C@@H]1N(CCc1c2[nH]c2ccc(OC)cc12)C3 [19(R)-HEYNEANINE]	3.14
CC[C@H]1C[C@@H]2CN3CC[C@]4(O)C(=Nc5ccccc54)[C@](C(=O)OC)(C2)[C@H]13 [CORONARIDINE HYDROXYINDOLENINE]	< 3.00
CC[C@H]1C[C@@H]2CN3CCc4c([nH]c5ccccc45)[C@](C(=O)OC)(C2)[C@H]13 [CORONARIDINE]	5.07
COC(=O)[C@@]12C[C@@H]3C[C@H]([C@H](C)O)[C@@H]1N(CC[C@]1(O)C2=Nc2ccccc21)C3 [HEYNEANINE HYDROXYINDOLENINE]	< 3.00
CC[C@H]1C[C@@H]2CN3CCc4c([nH]c5ccc(OC)cc45)[C@](C(=O)OC)(C2)[C@H]13 [VOACANGINE]	5.36
COC(=O)[C@@]12C[C@@H]3C[C@H]([C@H](C)O)[C@@H]1N(CCc1c2[nH]c2ccc(OC)cc12)C3 [VOACRISTINE]	3.38
C/C=C1/CN(C)[C@H]2Cc3c([nH]c4ccccc34)C(=O)C[C@H]1[C@@H]2C(=O)OC [VOBASINE]	< 3.00
